The record followed here is ChEMBL document CHEMBL3739370, “Synthesis and evaluation of amide, sulfonamide and urea benzisoxazole derivatives as potential atypical antipsychotics” (Medchemcomm, 2015).

Common to all, as to assay type: tissue-based
Assay [1] has as its target T1, 5-hydroxytryptamine receptor 1A (Rattus norvegicus, UniProt P19327).
T1 sequence (P19327 whole entry): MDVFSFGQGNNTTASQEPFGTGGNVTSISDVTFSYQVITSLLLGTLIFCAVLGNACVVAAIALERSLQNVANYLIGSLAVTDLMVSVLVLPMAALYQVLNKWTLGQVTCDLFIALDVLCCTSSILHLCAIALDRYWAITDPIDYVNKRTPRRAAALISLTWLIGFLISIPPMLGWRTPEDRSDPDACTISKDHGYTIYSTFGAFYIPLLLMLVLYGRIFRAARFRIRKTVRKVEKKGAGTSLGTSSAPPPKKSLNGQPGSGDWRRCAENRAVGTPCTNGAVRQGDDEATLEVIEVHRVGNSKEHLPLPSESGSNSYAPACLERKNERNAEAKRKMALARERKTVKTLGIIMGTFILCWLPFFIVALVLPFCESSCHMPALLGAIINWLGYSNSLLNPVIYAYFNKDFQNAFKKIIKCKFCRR
The assay is described as follows: Displacement of [3H]8-OH-DPAT from 5HT1A receptor in rat brain cortex.

Assay [2] has as its target T2, Adrenergic receptor alpha-1 (Rattus norvegicus, UniProt P15823+P23944+P43140).
T2 sequence (P15823 whole entry): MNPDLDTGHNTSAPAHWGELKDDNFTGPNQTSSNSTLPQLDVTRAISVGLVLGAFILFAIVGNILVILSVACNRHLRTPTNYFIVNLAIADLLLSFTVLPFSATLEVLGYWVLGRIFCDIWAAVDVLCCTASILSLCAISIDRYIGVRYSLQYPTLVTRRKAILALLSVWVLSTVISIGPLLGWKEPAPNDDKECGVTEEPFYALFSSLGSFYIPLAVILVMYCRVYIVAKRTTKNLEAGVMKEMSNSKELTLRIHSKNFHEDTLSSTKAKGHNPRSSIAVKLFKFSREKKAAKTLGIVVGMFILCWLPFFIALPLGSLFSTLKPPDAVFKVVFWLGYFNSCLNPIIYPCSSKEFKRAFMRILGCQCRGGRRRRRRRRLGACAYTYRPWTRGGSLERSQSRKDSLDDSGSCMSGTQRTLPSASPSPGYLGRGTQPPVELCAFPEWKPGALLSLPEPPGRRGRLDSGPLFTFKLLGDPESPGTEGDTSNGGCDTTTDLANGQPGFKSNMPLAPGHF
T2 sequence (P23944 whole entry): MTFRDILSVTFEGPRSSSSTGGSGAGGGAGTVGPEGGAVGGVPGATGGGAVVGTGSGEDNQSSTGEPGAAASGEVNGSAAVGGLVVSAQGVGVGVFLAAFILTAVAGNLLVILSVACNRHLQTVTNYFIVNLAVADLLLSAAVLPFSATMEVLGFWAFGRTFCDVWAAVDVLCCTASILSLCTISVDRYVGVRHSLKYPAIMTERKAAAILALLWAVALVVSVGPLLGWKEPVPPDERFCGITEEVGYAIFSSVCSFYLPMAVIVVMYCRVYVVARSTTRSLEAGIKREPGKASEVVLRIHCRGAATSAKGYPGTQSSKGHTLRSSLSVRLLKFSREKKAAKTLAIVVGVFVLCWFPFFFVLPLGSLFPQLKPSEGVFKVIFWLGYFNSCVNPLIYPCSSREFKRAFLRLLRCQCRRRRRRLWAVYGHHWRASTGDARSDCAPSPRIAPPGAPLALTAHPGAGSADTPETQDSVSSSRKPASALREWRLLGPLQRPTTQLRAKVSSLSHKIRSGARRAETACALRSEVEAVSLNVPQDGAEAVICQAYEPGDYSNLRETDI
T2 sequence (P43140 whole entry): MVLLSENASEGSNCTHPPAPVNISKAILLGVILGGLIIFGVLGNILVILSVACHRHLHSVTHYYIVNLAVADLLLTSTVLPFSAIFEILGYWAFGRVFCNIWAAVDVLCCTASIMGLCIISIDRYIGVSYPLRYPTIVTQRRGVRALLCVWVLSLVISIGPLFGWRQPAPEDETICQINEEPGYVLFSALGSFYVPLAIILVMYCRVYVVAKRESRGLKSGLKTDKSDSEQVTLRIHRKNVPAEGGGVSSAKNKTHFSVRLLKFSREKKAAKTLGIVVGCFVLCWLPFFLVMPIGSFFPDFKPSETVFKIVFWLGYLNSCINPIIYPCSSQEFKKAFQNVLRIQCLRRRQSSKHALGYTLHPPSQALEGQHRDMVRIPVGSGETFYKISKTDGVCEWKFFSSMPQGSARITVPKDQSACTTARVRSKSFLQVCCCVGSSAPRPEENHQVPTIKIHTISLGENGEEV
In words: Displacement of [3H]prazosin from adrenergic alpha1 receptor in rat brain cortex.

A further assay deals with D(3) dopamine receptor (Rattus norvegicus, UniProt P19020). In words: Displacement of [3H]7-OH-DPAT from dopamine D3 receptor in rat olfactory tubercle.
Sequence of D(3) dopamine receptor (P19020 whole entry): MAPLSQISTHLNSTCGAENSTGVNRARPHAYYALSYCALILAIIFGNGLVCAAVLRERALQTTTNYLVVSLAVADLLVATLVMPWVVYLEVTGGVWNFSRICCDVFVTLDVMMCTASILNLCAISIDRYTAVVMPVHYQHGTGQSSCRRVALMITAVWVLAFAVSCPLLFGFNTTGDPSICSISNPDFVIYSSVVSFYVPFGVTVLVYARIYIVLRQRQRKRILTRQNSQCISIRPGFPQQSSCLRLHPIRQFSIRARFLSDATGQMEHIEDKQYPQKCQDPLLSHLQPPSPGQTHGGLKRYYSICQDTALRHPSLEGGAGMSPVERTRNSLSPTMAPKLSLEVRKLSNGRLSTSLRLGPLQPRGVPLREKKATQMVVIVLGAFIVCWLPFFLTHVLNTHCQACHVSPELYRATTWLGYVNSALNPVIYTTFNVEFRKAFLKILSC

Turning to `O=[N+]([O-])c1ccc(S(=O)(=O)N2CCC(CN3CCC(c4noc5cc(F)ccc45)CC3)CC2)cc1`, the figures for the Ki (in assay [1]; in assay [2]; on D(3) dopamine receptor) were 16.9 nM, 2356.2 nM and 16.6 nM, respectively.
The matching figures for `O=S(=O)(c1ccc(C(F)(F)F)cc1)N1CCC(CN2CCC(c3noc4cc(F)ccc34)CC2)CC1`: 21.9 nM, 1098.2 nM and 237 nM.

As a reminder, the Ki is the equilibrium dissociation constant of an inhibitor or competing ligand from its target. Read a low Ki as a stronger hold on the target.
